Entries after “also recorded” stand apart in the source; their conditions may differ.

The test system of data set [1] is foot ulcer induced by acetic acid. The data set is described as follows: Diabetic rat foot ulcer curing action (STZ diabetic rats, foot ulcer induced by acetic acid). In kind it is in vivo. Particulars: for Ulcer area after administration of acetic acid / Swelling score after administration of acetic acid: diabetic rat, 0.2% in PEG400 applied, average, n=6; for Swelling score after administration of acetic acid: score 0-3. As to the method: (§1) The action of the compound (applied) in accordance with this invention on a foot ulcer induced by acetic acid was examined by using normal and diabetic rats. Diabetes was induced in each of a seven-week-old male SD rats by intravenously administrating 60 mg/kg streptozotocin (STZ) to its tail. Fourteen days after the administration of STZ, 20 μl glacial acetic acid was administered into the skin of the left foot instep of each of the diabetic rats and control rats of the same age while anesthetized using ether, thereby causing necrosis at the portion. In the case when the necrotic cuticle of the skin remained two days after the necrosis, the cuticle was removed surgically. Then, the administration of FR136706 (0.2% solution in PEG (polyethylene glycol) 400) was started (50 μl to the affected portion). PEG400 was administered to the control group in a similar way. In a period between two days and 25 days after the administration of acetic acid, swelling scores (0: no swelling, 1: slight swelling, 2: intermediate swelling, 3: significant swelling) was checked visually, and the major axis length and the minor axis length of each ulcer was measured with vernier calipers. The area of each ulcer was calculated from the major axis length and the minor axis length thereof.

For data set [2] the test system is unchanged. In words: Foot ulcer induced by acetic acid, normal rats (applied FR136706). It counts as in vivo, rat. Particulars: for Ulcer area after administration of acetic acid / Swelling score after administration of acetic acid: normal rat, 0.2% in PEG400 applied, average, n=6; for Swelling score after administration of acetic acid: score 0-3. As to the method:
as §1

For data set [3] the following is noted: qualitative, by solvent; known properties from earlier filings; cited from earlier work.
Where [4] appears, read: diabetic rats, 0.2% solution in PEG400 applied.
[5] abbreviates: normal rats, 0.2% solution in PEG400 applied.

For `CC(C)C(NC(=O)[C@@H]1CCCN1C(=O)[C@@H](NC(=O)c1ccc(C(=O)NCC(=O)[O-])cc1)C(C)C)C(=O)C(F)(F)F.[Na+]` (mixture of isomers) [FR136706, Sodium salt of 3(RS)-[[4-(carboxymethylaminocarbonyl)phenylcarbonyl]-L-valyl-L-prolyl]amino-1,1,1-trifluoro-4-methyl-2-oxopentane], the “Ulcer area after administration of acetic acid” value (shortened to “Ulcer area after administration”) was 69.17 mm^2 in data set [1] (after 2 days); 91.77 mm^2 in data set [1] (after 8 days); 72.38 mm^2 in data set [1] (after 11 days); 41.00 mm^2 in data set [1] (after 15 days); 16.10 mm^2 in data set [1] (after 18 days); 12.08 mm^2 in data set [1] (after 22 days). Besides, the “Ulcer area after administration” value in data set [1] (after 25 days) is on record as 6.99 mm^2; in data set [2] (after 2 days), 58.37 mm^2; in data set [2] (after 8 days) it was 71.42 mm^2; in data set [2] (after 11 days), 53.21 mm^2; in data set [2] (after 15 days), 18.32 mm^2; in data set [2] (after 18 days), 0.69 mm^2. In addition, the “Ulcer area after administration” value in data set [2] (after 22 days) and in data set [2] (after 25 days) was 0.00 mm^2 throughout. Moreover, the “Swelling score after administration of acetic acid” value (shortened to “Swelling score after administration”) in data set [1] (after 2 days) was 2.2; in data set [1] (after 8 days) it was 2.8; in data set [1] (after 11 days) it was 2.5; in data set [1] (after 15 days) it was 1.5; in data set [1] (after 18 days), 1.5; in data set [1] (after 22 days), 1.2. The “Swelling score after administration” value was 0.7 in data set [1] (after 25 days, & significant at 5% vs PEG400 diabetic group); 2.5 in data set [2] (after 2 days); 2.0 in data set [2] (after 8 days); 1.5 in data set [2] (after 11 days); 1.0 in data set [2] (after 15 days); 0.5 in data set [2] (after 18 days). Further, the “Swelling score after administration” value in data set [2] (after 22 days) and in data set [2] (after 25 days) was 0.0 throughout. Moreover, the “Effect on contraction of ulcer areas (in words)” value was “tended to promote the contraction of the ulcer areas of the diabetic rats” in data set [1] (setting [4]) and “did not act on the normal rats” in data set [2] (setting [5]). The “Effect on recovery of swelling scores (in words)” value in data set [1] (setting [4]) is recorded as “promoted the recovery of the diabetic rats”; in data set [2] (setting [5]), “did not act on the normal rats”.
For “Dipotassium salt of the WS7622A disulfate ester”, in data set [3], the Solubility entry was “soluble: water, methanol; also recorded: insoluble: chloroform, n-hexane”.
As for “Disodium salt of WS7622A disulfate ester”, in data set [3], the Solubility result is reported as “soluble: water, methanol; also recorded: insoluble: chloroform, n-hexane”.

Values taken from patent US20030207432A1, “Remedies for intractable wound” (Fujisawa Pharmaceutical Co., Ltd.,, priority 1999, published 2003).
